Laboratory results from patent publication US9029097B2, “Biosensors for monitoring receptor-mediated G-protein activation” (Universite de Montreal, priority 2005, dated 2015).
“Also recorded” adds a separate entry of the source. Read-outs that look alike come from different tables or passages of the source.

Key:
[1] = biological target: T1, β2-adrenergic receptor (β2AR) (Homo sapiens, UniProt P07550); assay: BRET in membrane preparations from HEK293T cells co-expressing β2AR-Rluc and GFP10-Gβ1 or GFP10-Gγ2; format: biochemical; details: membranes
T1 construct: expressed in transfected cells; host or cells: HEK293T (transient, calcium phosphate)
Method: Treatments: Iso, 10 μM; Feno, 10 μM; ICI, 100 μM; GTPγS, 200 μM. […] Rluc-tagged receptors and G protein constructs were transiently co-transfected in HEK293T cells. […] Forty-eight hours post-transfection, cells were washed twice with PBS, detached with PBS-5 mM EDTA and resuspended in PBS-0.1% glucose at RT. […] DeepBlueCTM coelenterazine (PerkinElmer) was added at a final concentration of 5 μM, and readings (except for the kinetic studies; see below) were collected using a modified top-count apparatus (TopCount.NXTM, Packard Bioscience) that allows the sequential integration of the signals detected in the 370-450 nm and 500-530 nm windows using filters with the appropriate band pass (Chroma). […] The net BRET values were obtained by subtracting the BRET background signal detected when the Rluc-tagged construct was expressed alone from BRET signals detected in cells coexpressing both Rluc- and GFP10-tagged constructs. […] The expression level of each protein was determined by direct measurement of total fluorescence and luminescence on aliquots of the transfected cells. […] To avoid variations in the BRET signal that could result from fluctuations in the relative expression levels of the energy donor and acceptor, transfection conditions were designed so as to maintain a constant GFP10/Rluc expression ratio in each experimental set.

[2] = biological target: T2, human α2A-adrenergic receptor (α2AAR) (Homo sapiens, UniProt P08913); assay: BRET between α2AAR and tagged G protein subunits (Gβ1, Gγ2, Gαi1-91Rluc, Gαi1-122Rluc) in living HEK293T cells; format: cell-based; details: for effect of pre-treatment on agonist-promoted changes in BRET between α2AAR and G protein subunits: pertussis toxin 16 h at 37° C., UK14,304, FIG. 21
T2 construct: expressed in transfected cells; host or cells: HEK293T (transient)
T2 sequence (P08913 1-465): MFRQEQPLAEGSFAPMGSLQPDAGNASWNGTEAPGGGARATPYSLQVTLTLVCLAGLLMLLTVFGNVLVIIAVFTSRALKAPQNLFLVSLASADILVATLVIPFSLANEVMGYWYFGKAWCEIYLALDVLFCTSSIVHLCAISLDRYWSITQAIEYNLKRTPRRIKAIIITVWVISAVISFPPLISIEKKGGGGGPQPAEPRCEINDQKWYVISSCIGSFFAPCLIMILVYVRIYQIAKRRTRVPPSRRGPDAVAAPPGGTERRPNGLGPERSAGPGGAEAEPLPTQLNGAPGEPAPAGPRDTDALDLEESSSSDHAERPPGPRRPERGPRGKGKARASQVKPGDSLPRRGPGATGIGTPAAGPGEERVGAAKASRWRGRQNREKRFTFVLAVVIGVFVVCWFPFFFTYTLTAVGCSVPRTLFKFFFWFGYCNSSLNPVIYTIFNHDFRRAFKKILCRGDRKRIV
Method: (§1) Rluc-tagged receptors and G protein constructs were transiently co-transfected in HEK293T cells. […] For the experiment using α2AAR-Rluc (FIG. 4f), the G protein heterotrimer was complimented with the most specific Gαi2. Forty-eight hours post-transfection, cells were washed twice with PBS, detached with PBS-5 mM EDTA and resuspended in PBS-0.1% glucose at RT. Cells (50 μg of proteins per well) were then distributed in a 96-well microplate (white Optiplate, PerkinElmer) and incubated in the presence or absence of different ligands for 1 min except in the case of the kinetic studies where the times are indicated. DeepBlueC™ coelenterazine (PerkinElmer) was added at a final concentration of 5 μM, and readings (except for the kinetic studies; see below) were collected using a modified top-count apparatus (TopCount.NX™, Packard Bioscience) that allows the sequential integration of the signals detected in the 370-450 nm and 500-530 nm windows using filters with the appropriate band pass (Chroma). The BRET signal was determined by calculating the ratio of the light emitted by GFP10 (500-530 nm) over the light emitted by the Rluc (370-450 nm). The net BRET values were obtained by subtracting the BRET background signal detected when the Rluc-tagged construct was expressed alone from BRET signals detected in cells coexpressing both Rluc- and GFP10-tagged constructs. […] The expression level of each protein was determined by direct measurement of total fluorescence and luminescence on aliquots of the transfected cells. The GFP10 total fluorescence was measured using a FluoroCount (PerkinElmer) with an excitation filter at 400 nm, an emission at 510 nm, and the following parameters: gain 1; PMT 1100 V; time 1.0 s. After fluorescence measurement, the same cells were incubated for 8 min with Coelenterazine h (Molecular Probes) at a final concentration of 5 μM and the total luminescence of cells was measured using a LumiCount (PerkinElmer Life Sciences) with the following parameters: gain 1; PMT 900 V; time 0.5 s. […] To avoid variations in the BRET signal that could result from fluctuations in the relative expression levels of the energy donor and acceptor, transfection conditions were designed so as to maintain a constant GFP10/Rluc expression ratio in each experimental set.
For kinetic analysis of receptor/Gαβγ interactions, DeepBlueC™ or Coelenterazine h luciferase substrate was added prior to the injection of the different ligands using the Mithras LB 940 apparatus (Berthold) and MicroWin2000 software. Readings were then collected at 0.05 or 0.1 sec intervals. Injection of the different ligands was included with in the kinetic program to allow a baseline recording followed by real-time recording of the BRET changes. The BRET signals were determined for each time by calculating the ratio of the light emitted by GFP over that emitted by the Rluc. To determine the half-time (t½) of Iso-induced BRET, data were represented as the difference between the Iso-induced BRET signals and the average of basal BRET signal (net agonist-promoted BRET signal). Curves were fitted using a non-linear regression and one phase exponential association fit equation (GraphPad Prism).
For agonist stimulations longer than 1 minute, cells were first treated with the ligand (agonist, antagonist, inverse agonist) and DeepBlueC™ coelenterazine added immediately before BRET readings in the modified TopCount.NXT™ apparatus. For these experiments, readings were taken directly in 96 well plates 72 hours post-transfection without detaching the cells.

[3] = biological target: T3, α2AAR (Homo sapiens, UniProt P08913); assay: BRET between Gαi1-Rluc and GFP10-Gγ2 in the presence of α2AAR (Gα/Gβγ interaction); format: cell-based
T3 construct: expressed in transfected cells; host or cells: HEK293T
T3 sequence (P08913 1-465): T2 sequence (P08913 1-465)
Method: as §1

[4] = biological target: T1, β2-adrenergic receptor (β2AR); assay: BRET2 receptor/G protein interaction assay: β2AR-Rluc (or β2AR-GFP10) with tagged G protein subunits in living HEK293T cells; format: cell-based
Method: Rluc-tagged receptors and G protein constructs were transiently co-transfected in HEK293T cells. […] For the experiment using α2AAR-Rluc (FIG. 4f), the G protein heterotrimer was complimented with the most specific Gαi2. Forty-eight hours post-transfection, cells were washed twice with PBS, detached with PBS-5 mM EDTA and resuspended in PBS-0.1% glucose at RT. Cells (50 μg of proteins per well) were then distributed in a 96-well microplate (white Optiplate, PerkinElmer) and incubated in the presence or absence of different ligands for 1 min except in the case of the kinetic studies where the times are indicated. DeepBlueC™ coelenterazine (PerkinElmer) was added at a final concentration of 5 μM, and readings (except for the kinetic studies; see below) were collected using a modified top-count apparatus (TopCount.NX™, Packard Bioscience) that allows the sequential integration of the signals detected in the 370-450 nm and 500-530 nm windows using filters with the appropriate band pass (Chroma). The BRET signal was determined by calculating the ratio of the light emitted by GFP10 (500-530 nm) over the light emitted by the Rluc (370-450 nm). The net BRET values were obtained by subtracting the BRET background signal detected when the Rluc-tagged construct was expressed alone from BRET signals detected in cells coexpressing both Rluc- and GFP10-tagged constructs. […]

[5] = untagged α2AAR, ligands 10 μM, FIG. 27A, 27C

Molecule: Nc1nc2c(ncn2[C@@H]2O[C@H](COP(=O)(O)OP(=O)(O)OP(O)(O)=S)[C@@H](O)[C@H]2O)c(=O)[nH]1 [GTPγS]
- effect on agonist-promoted BRET signal, β2AR-Rluc / GFP10-Gβ1 or GFP10-Gγ2 ([1]; GTPγS 200 μM, 90 min at 25° C. pretreatment, Iso 10 μM): attenuated the agonist-promoted signal
- effect on basal BRET in the absence of agonist, β2AR-Rluc / GFP10-Gβ1 or GFP10-Gγ2 ([1]; GTPγS 200 μM, 90 min at 25° C. pretreatment): reduced the basal BRET

Molecule: Nc1nc2c(ncn2[C@@H]2O[C@H](COP(=O)(O)OP(=O)(O)OP(=O)(O)O)[C@@H](O)[C@H]2O)c(=O)[nH]1 [GTP, Guanosine triphosphate]
- effect of GTP on basal and agonist-stimulated BRET, β2AR-Rluc / GFP-Gβ1 or GFP-Gγ2 ([1]; high GTP concentrations, 90 min at 25° C., Iso 10 μM, FIG. 9): GTP sensitive

Molecule: Cc1cccc([C@H](C)c2cnc[nH]2)c1C [dexmedetomidine, Dexmedetomidine]
- change in BRET2, Gαi1-91Rluc / α2AAR-GFP2 [2]: partial increase in BRET
- change in BRET2, Gαi1-122Rluc / α2AAR-GFP2 [2]: larger responses
- change in BRET2, α2AAR-Rluc / GFP10-Gβ1 [2]: partial increase in BRET
- change in BRET2, α2AAR-Rluc / GFP10-Gγ2 [2]: partial increase in BRET
- modulation of BRET, Gαi1-Rluc / α2AAR-GFP10 [2]: induced only a fraction of the full agonist modulation UK14304
- change in BRET, Gαi1-91Rluc / GFP10-Gγ2 [3, 5]: decreased the BRET
- change in BRET, Gαi1-122Rluc / GFP10-Gγ2 [3, 5]: decreased the BRET

Molecule: COC(=O)[C@@H]1[C@H]2C[C@H]3c4[nH]c5ccccc5c4CCN3C[C@@H]2CC[C@@H]1O [yohimbine, Yohimbine]
- change in BRET2, Gαi1-91Rluc / α2AAR-GFP2 [2]: little or no effect
- change in BRET2, Gαi1-122Rluc / α2AAR-GFP2 [2]: promoted a decrease in the BRET
- change in BRET2, α2AAR-Rluc / GFP10-Gβ1 [2]: little or no effect
- change in BRET2, α2AAR-Rluc / GFP10-Gγ2 [2]: little or no effect
- modulation of BRET, Gαi1-Rluc / α2AAR-GFP10 [2]: unable to modulate the BRET signal
- change in BRET, Gαi1-91Rluc / GFP10-Gγ2 [3, 5]: no effect on the BRET signal
- change in BRET, Gαi1-122Rluc / GFP10-Gγ2 [3, 5]: significant decrease in the BRET signal

Molecule: CC(Cc1ccc(O)cc1)NCC(O)c1cc(O)cc(O)c1 (stereo not shown) [fenoterol]
- ligand-promoted BRET response, β2AR-Rluc / GFP10-Gβ1 or GFP10-Gγ2, compared with isoproterenol ([4]; Feno 10 μM, Iso 10 μM, FIG. 3C): promoted only a fraction of the response evoked by the full agonist isoproterenol

Molecule: Clc1cccc(Cl)c1N=C1NCCN1 [clonidine, Clonidine]
- change in BRET2, Gαi1-91Rluc / α2AAR-GFP2 [2]: partial increase in BRET
- change in BRET2, α2AAR-Rluc / GFP10-Gβ1 [2]: partial increase in BRET
- change in BRET2, α2AAR-Rluc / GFP10-Gγ2 [2]: partial increase in BRET
- modulation of BRET, Gαi1-Rluc / α2AAR-GFP10 [2]: induced only a fraction of the full agonist modulation UK14304
- change in BRET, Gαi1-91Rluc / GFP10-Gγ2 [3]: decreased the BRET
- change in BRET, Gαi1-122Rluc / GFP10-Gγ2 [3]: decreased the BRET

Molecule: pertussis toxin
- effect of pre-treatment on agonist-promoted changes in BRET between α2AAR and G protein subunits [2]: blocked
- effect of pre-treatment on agonist-promoted changes in BRET between α2AAR and G protein subunits ([2]; listed as PTX): greatly blunted agonist-promoted BRET changes
- effect of treatment on UK14,304-promoted BRET changes, Gαi1-91Rluc or Gαi1-122Rluc / GFP10-Gγ2 ([3]; pertussis toxin 16 h at 37° C., FIG. 21): abolished

Molecule: Brc1c(NC2=NCCN2)ccc2nccnc12 [UK14,304]
- change in BRET1, Gαi1-91Rluc / α2AAR-Venus, measured concomitantly with BRET2 in the same cells [2]: increase in the BRET
- change in BRET2, Gαi1-91Rluc / α2AAR-GFP2 [2]: significantly increased the BRET
- change in BRET2, α2AAR-Rluc / GFP10-Gβ1 [2]: significantly increased the BRET
- change in BRET2, α2AAR-Rluc / GFP10-Gγ2 [2]: significantly increased the BRET
- loss (decrease) of BRET signal, α2AAR-Rluc / GFP10-Gγ2 [2]: 24%
- real-time BRET1 change, Gαi1-91Rluc / α2AAR-Venus [2]: rapid increases in the BRET
- real-time BRET1 change, Rluc-Gγ2 / α2AAR-Venus [2]: rapid increases in the BRET
- real-time BRET1 change, α2AAR-Venus / Gαi1-122Rluc [2]: rapid decrease in BRET^1
- time BRET levels reached following agonist stimulation remained constant, α2AAR-Venus pairs [2]: at least 12 seconds
- change in BRET2, Gαi1-91Rluc / GFP10-Gγ2, measured concomitantly with BRET1 in the same cells [3]: decrease in BRET^2
- change in BRET, Gαi1-91Rluc / GFP10-Gγ2 [3]: promoted a reduction of BRET; also recorded: decreased the BRET
- change in BRET, Gαi1-122Rluc / GFP10-Gγ2 [3]: promoted a reduction of BRET; also recorded: decreased the BRET

Molecule: COC1(C2=NCCN2)COc2ccccc2O1 (stereo not shown) [RX821002]
- effect of pretreatment on UK14,304-promoted BRET increase, α2AAR / G protein pairs ([2]; FIG. 25): completely blocked the UK14,304-promoted BRET increase
- effect of preincubation on agonist-stimulated BRET response, Gαi1-Rluc / α2AAR-GFP10 ([2]; agonist UK14304, FIG. 3E): completely blocked the agonist-stimulated response
- modulation of BRET, Gαi1-Rluc / α2AAR-GFP10 ([2]; ligands 10 μM, FIG. 3E): unable to modulate the BRET signal
- change in BRET2, Gαi1-91Rluc / α2AAR-GFP2 ([2]; ligands 10 μM, FIG. 20, 25): little or no effect
- change in BRET2, Gαi1-122Rluc / α2AAR-GFP2 ([2]; ligands 10 μM, FIG. 20, 25): promoted a decrease in the BRET
- change in BRET2, α2AAR-Rluc / GFP10-Gβ1 ([2]; ligands 10 μM, FIG. 20, 25): little or no effect
- change in BRET2, α2AAR-Rluc / GFP10-Gγ2 ([2]; ligands 10 μM, FIG. 20, 25): little or no effect
- change in BRET, Gαi1-91Rluc / GFP10-Gγ2 [3, 5]: no effect on the BRET signal
- change in BRET, Gαi1-122Rluc / GFP10-Gγ2 [3, 5]: significant decrease in the BRET signal

Molecule: AVP: Vasopressin-selective agonist (V2R)
- modulation of BRET signal, β2AR-Rluc / GFP-Gγ2 or GFP-Gβ1, in cells also expressing Myc-V2R ([4]; 10 μM AVP, specificity control, FIG. 7): unable to modulate BRET signal
